Assay results published in patent publication US5846937A, “Method of using exendin and GLP-1 to affect the central nervous system” (1149336 Ontario Inc., priority 1997, dated 1998).

Tests used:
[1] = tested on: Wild-type (+/+), male CD1 mice; test: Line test (locomotor activity) after ICV injection, wild-type mice; assay type: in vivo; settings: wild-type mice fasted overnight; ICV 5 μl; GLP-1 5 μg, Exendin(9-39) amide 10 μg, Exendin-4 amide 15 μg
Experimental: Male CD1 mice were used for these experiments. Wild-type (+/+), male CD1 mice (approx. 11 weeks old) were obtained from Charles River Canada (Quebec). Mice were acclimatized to the animal facility for several days prior to use in the actual experiments.
(§1) All mice were faster overnight 16 hours prior to the start of the experiment. Mice were lightly anesthetized by placing them in a covered beaker with 800 μl of Methoxyflurane (Metofane, Jannsen Pharmaceuticals) for approximately 3 minutes. Peptides were delivered into the ventricles by ICV injection using a 2.5 mm×30 gauge needle attached to a Hamilton syringe. All test peptides were dissolved in phosphate buffered saline. Mice were given 5 μl ICV injections of the test peptides or saline, following which they were observed closely for 3 hours.
(§2) Following ICV administration of GLP-1 [5 μg/5 μl; Glucagon-like Peptide 1 (7-36) amide, human, lot # AM680, Bachem California, Torrence, Calif.], Exendin(9-39) amide (10 μg/5 μl; lot # ZN136, Bachem California, Torrence, Calif.), Exendin-4 amide (15 μg/5 μl; kit # 506189, Bachem California, Torrence, Calif.), or PBS, mice were placed into individual cages for the period of observation.
(§3) To record food intake, mice were given a pre-weighed (approx. 3 g) amount of rodent chow when all members of a test group appeared fully alert, generally about 20-30 minutes after ICV injection.
(§4) Approximately 15-20 min. after the mice had begun to eat, or no longer than 30 min. following the addition of the pre-weighed rodent chow to the cages, the parameter of arousal/sedation was assessed, namely mice were assessed for locomotor activity by measuring the number of times each animal crossed over a line that was placed in the center of the cage (line test).
(§5) The Locomotor activity was assessed for 3×30 min consecutive periods. The data for the first 30 minutes observation period is shown in the accompanying FIG. 1.

[2] = tested on: GLP-1R^(-/-) knockout mice; test: Line test (locomotor activity) after ICV injection, GLP-1R knockout mice; assay type: in vivo; settings: GLP-1R knockout mice fasted overnight; ICV 5 μl; GLP-1 5 μg, Exendin(9-39) amide 10 μg, Exendin-4 amide 15 μg
Experimental: GLP-1R^(-/-) knockout age-matched male mice, produced as described above in example 1, were bred in the Toronto Hospital animal facility. All mice were fed a diet of ad libitum access to standard laboratory rat chow and tap water.
as §1, with “saline.” for “saline. Mice were given 5 μl ICV injections of the test peptides or saline, following which they were observed closely for 3 hours.”
as §2, §3, §4, §5

normal wildtype mice = test: Dose response experiment, line test after ICV injection, non-fasted mice; assay type: in vivo; settings: for mean number of line crossings: not fasted, saline control 66.8
Experimental: A dose response experiment was performed to compare the specific activities of exendin and GLP-1 peptides. Additionally, this experiment was designed to eliminate the possibility that the sedative response was connected to any feeding behavior. Therefore, mice were not fasted prior to the experiment, and were instead allowed food and water ad libitum throughout their dark cycle. At the beginning of the light cycle, food was removed and peptides administered. Exendin or GLP-1 peptide, obtained as described above, were each injected ICV into normal wildtype mice at a concentration of 0.5, 1.0, 5.0 or 10.0 μg per 5 μl, and locomotor activity assessed as above.

rats = settings: ICV administration; cited from earlier work

## Glucagon-like Peptide 1 (7-36) amide [GLP-1]
[1]
  locomotor activity (number of line cross events): exhibited the same tendency
[2]
  locomotor activity / lethargy: did not
Normal wildtype mice; 10 μg per 5 μl ICV (highest dose)
  mean number of line crossings: 24
rats
  food intake / feeding: inhibits feeding
  locomotor activity: reduction in locomotor activity

## Exendin(9-39) amide
[1]
  locomotor activity (number of line cross events): greatly increased locomotor activity
[2]
  locomotor activity / lethargy: induced lethargy
rats
  food intake / feeding: doubled food intake

## Exendin-4 amide [exendin 4]
[1]
  locomotor activity (number of line cross events): clear and marked decreased number of line cross events
[2]
  locomotor activity / lethargy: induced lethargy and reduced movement
Normal wildtype mice; 0.5 μg per 5 μl ICV (lowest dose)
  mean number of line crossings: 11.5
Normal wildtype mice; sedative effect in the mammalian central nervous system, ICV
  potency relative to GLP-1 on a weight (μg) basis: at least 20 fold
